Here are results for two compounds from patent US5616342A, “Emulsioin suitable for administering a poorly water-soluble photosensitizing compound and use thereof” (PDT, Inc., priority 1995, dated 1997).

Data set [1] relates to transplantable, FANFT-induced, urothelial tumors. In words: photodynamic treatment of transplantable FANFT-induced urothelial tumors with SnEt2 emulsion and red light (Example 4). The data set is classed as in vivo, Fischer 344 rats. How it is done: (§1) Fischer 344 rats, engrafted with transplantable, chemically-induced (FANFT) urothelial tumors, were treated with tin ethyl etiopurpurin (SnEt2) and red light (660 nm). SnEt2 was administered as a bolus injection via lateral tail vein, using the emulsion described by the present invention. Tumor response was assessed in groups of nine animals injected with one of four doses of drug and exposed to one of three different doses of light, as summarized in FIG. 1. Control animals received emulsion vehicle without drug. Animals were monitored for tumor re-growth, tissue changes at treatment site, and general health three times per week for a period of 30 days after light treatment.
By determining the number of tumor-free rats 30 days after each treatment, tumor dose-response curves for drug and light were generated, shown in FIG. 1.

The nature of data set [2]: general health / adverse events after drug-emulsion treatment (Example 4). The conditions noted are these: i.v. bolus in emulsion plus red light, 30 days. Type of data set: in vivo, Fischer 344 rats. How it is done:
as §1

How the values of data set [3] were obtained: Mixtures of MCT oil, egg phospholipids, ethanol, and SnEt2 were incubated with different bile salts, all at 4.6 mM^1, under the same conditions described above in Example 1.
Data set [4] in a line: SnEt2 drug solubility in MCT oil with excipient combinations (Example 1). Conditions: invention emulsion.
Protocol: After incubating for 30 minutes at 55° C., the tubes stand overnight at room temperature (19°-22° C). The tubes are centrifuged to remove bulk precipitates, and supernatants are filtered through 0.45 μm nylon membrane to remove any undissolved drug. Aliquots of filtrate are then diluted in chloroform:isopropyl alcohol (1:1) for spectrophotometric determination of drug concentration (absorbance at 662 nm). Reference standards are prepared with known concentrations of SnEt2 in the same solvent.
The conditions of data set [5]: pH 8.0. The method, then: In particular, net electronegative charge (Zeta potential) on the emulsified oil droplets is measured by changes in electrophoretic mobility at pH 8.0 (Malvern Zetasizer 2c). […] A relationship between Zeta potential and physical stability of colloidal systems has been documented.

As for `CCOC(=O)C1=Cc2c3nc(cc4nc(cc5[n-]c(cc6[n-]c2c(C)c6CC)c(C)c5CC)C(C)=C4CC)[C@@H](C)[C@]13CC.[Cl-].[Cl-].[Sn]` (racemic) [SnEt2, Tin ethyl etiopurpurin], the “dose and light response by the tumor” value in data set [1] (four drug doses, three light doses, 30 days) is “A dose and light response by the tumor was demonstrated”. Besides, the tumor treatment outcome in data set [1] (i.v. bolus in emulsion, red laser light 660 nm, 30 days after treatment) is on record as “effective in the treatment”. In data set [2], the adverse clinical events entry is given as “No adverse clinical events were observed” and the “deaths attributable to drug-emulsion treatment” value was “no deaths occurred”. In data set [3], the “SnEt2 Concentration” value amounted to 1.26 mg/gm Oil and the “SnEt2 Concentration Normalized” value is 1.00. Further, the “SnEt2 concentration delivered by the present invention relative to 0.08 mg/ml” value in data set [4] is “over ten times”.
Regarding `C[C@H](CCC(=O)O)[C@H]1CC[C@H]2[C@@H]3[C@H](O)C[C@@H]4C[C@H](O)CC[C@]4(C)[C@H]3C[C@H](O)[C@]12C` [sodium cholate], the “effect on Zeta potential of phospholipid-stabilized emulsions” value in data set [5] was “increases the Zeta potential”.
